Test [1] has as its system lipoxygenase. Briefly: Inhibition of leukotriene formation (LTC4, LTD4, LTE4 in pleural exudate, HPLC) in A23187-induced pleurisy, oral administration. Type of test: in vivo, rats (Wistar-strain, male). The note with it: rat pleural exudate, 3 mg/kg p.o., 60 minutes before intrapleural A23187. As for the experimental part: (1) Preparation of A23187 -induced pleurisy
Under ether anaesthesia, 0.2 ml of 100,μM […] (prepared by adding injectable distilled water in a 2mM A23187 ethanol solution) was administered intrapleurally to rats (Wistar-strain, male, 11 weeks old). Twenty minutes after the administration, the rats were exsanguinated and the pleural exudate was harvested. The test compound was suspended or dissolved in a 0.5% carboxymethyl cellulose solution containing 2% Tween, and orally administered to the animals 60 minutes before the intrapleural administration of A23187.
(2) Measurement of the leukotrienes [LTC4, LTD4 and LTE4 ]
To the exudate obtained in (1) was added 4 times its volume of ice-cooled ethanol. They were well mixed, and then centrifuged. The supernatant was concentrated under reduced pressure, and 1.0 ml of 0.01M acetate buffer (pH 5.9) was added to the residue. The solution was added to SEP-PAK® (C18) and leukotrienes were partially purified. Fractions eluted with 5 ml of 60% ethanol/0.01M acetate buffer (pH 5.9) were collected, and the solvent was evaporated under reduced pressure.
The residue was dissolved in 1 ml of methanol, and the solution was filtered on a filter having a pore size of 0.45 microns, and evaporated under reduced pressure. The residue was dissolved in the mobile phase (acetonitrile/water/acetic acid/triethylamine, 35/63.5/1.5/2.2) used in high performance liquid chromatography (HPLC) and subjected to analysis by HPLC. A calibration curve was obtained by a fixed amount of PGB2 as an internal standard substance and standard LTC4, LTD4 and LTE4 were added to a buffer, followed by the same extraction, partial purification and HPLC analysis as above. The amounts of the leukotrienes in the sample were calculated from the calibration curve.
The activity of 2-(4-hydroxy-3,5-dimethylphenyl)-5-methoxy-3-methylindole (compound A) which is disclosed in Example 1 of U.S. Pat. No. 4,695,381 and was selected as an active control is also shown below.

Test [2] concerns lipoxygenase. The conditions noted are these: known inhibitors; cited from earlier work.
Test [3] deals with cyclooxygenase. The note with it: known inhibitors; cited from earlier work.

Turning to `COc1ccc2[nH]c(-c3cc(C)c(OC(=O)CCC(=O)O)c(C)c3)c(C)c2c1` [Example 1], the “percent inhibition of LTC4 + LTD4 + LTE4” value in test [1] was 53.4%. Further, the “LTC4 + LTD4 + LTE4” value in test [1] (mean ± S.E.M., vehicle 414.82 ± 49.81 ng) worked out at 193.30 ± 28.37 ng. For the molecule `COc1ccc2[nH]c(-c3cc(C)c(O)c(C)c3)c(C)c2c1` [Compound A, 2-(4-hydroxy-3,5-dimethylphenyl)-5-methoxy-3-methylindole], the “percent inhibition of LTC4 + LTD4 + LTE4” value in test [1] was 32.0%. For the molecule `CCCCCC#CCC#CCC#CCC#CCCCC(=O)O` [5,8,11,14-eicosatetraynoic acid], the lipoxygenase inhibition result in test [2] is given as “inhibit not only lipoxygenase”. In addition, the “cyclooxygenase inhibition (lack of specificity)” value in test [3] is “lack specificity and inhibit not only lipoxygenase but also cyclooxygenase”. Regarding `NC1=NN(c2cccc(C(F)(F)F)c2)CC1` [BW755C, 3-amino-1-(3-trifluoromethylphenyl)-2-pyrazoline], the lipoxygenase inhibition result in test [2] is reported as “inhibit not only lipoxygenase”. In addition, in test [3], the “cyclooxygenase inhibition (lack of specificity)” value is “lack specificity and inhibit not only lipoxygenase but also cyclooxygenase”.

Source of the values: patent US4910216A, “2-(3,5-dimethyl-4-hydroxyphenyl)indole derivatives” (Teikoku Hormone Mfg. Co., Ltd., priority 1988, dated 1990).
